According to paper PMC9885526 (ACS Central Science, 2023):

What was measured:
SARS-CoV-2 [1] = settings: cited from earlier work
[2] = tested on: SARS-CoV-2 (wild-type strain); test: microbe, parasite or virus in culture; format: cell-based; settings: Severe acute respiratory syndrome coronavirus 2
SARS-CoV-2 [3] = tested on: SARS-CoV-2; set-up: species or system K18-hACE2 transgenic mice; settings: mouse, in vivo, po, 300 mg/kg
SARS-CoV-2 3CLpro = SARS-CoV-2 3CLpro (Severe acute respiratory syndrome coronavirus 2, UniProt P0DTD1); test: biochemical
in vitro = settings: human
[4] = tested on: SARS-CoV-2 (wild-type strain); test: microbe, parasite or virus in culture; format: cell-based; settings: Severe acute respiratory syndrome coronavirus 2, 48 h
[5] = tested on: SARS-CoV-2 (wild-type strain); test: microbe, parasite or virus in culture; format: cell-based; settings: Severe acute respiratory syndrome coronavirus 2, Calu-3
SARS-CoV 3CLpro = SARS-CoV 3CLpro (Severe acute respiratory syndrome coronavirus, UniProt P0C6X7); format: biochemical

## O=C(Cn1nnc2ccccc21)N(Cc1cccc(Cl)c1)c1ccc(-c2cnc[nH]2)cc1 [CCF0058981]
SARS-CoV-2 [1]
  EC50: ~500 nM

## CC(C)(C)[C@H](NC(=O)C(F)(F)F)C(=O)N1C[C@H]2[C@@H]([C@H]1C(=O)N[C@H](C#N)C[C@@H]1CCNC1=O)C2(C)C [PF-07321332, Nirmatrelvir]
[2]
  EC50: 117 nM
SARS-CoV-2 [3]
  average body weight change: did not change

## CCC(CCNc1c(C(=O)NC)cc(Br)cc1[N+](=O)[O-])NC(=O)c1cncc2cccc(O)c12 (stereo not shown) [WU-01]
SARS-CoV-2 3CLpro
  IC50: 648 ± 68 nM

## CNC(=O)c1cc(Br)cc([N+](=O)[O-])c1N1CC[C@@]2(CN(C(=O)c3cncc4cc(O)ccc34)C[C@@H]2c2ccccc2)C1 [WU-02]
In vitro
  CC50: > 20000 nM
[4]
  EC50: 54 nM
  EC90: 305 nM
[5]
  EC50: 80 nM
  EC90: 201 ± 57 nM
SARS-CoV-2 3CLpro
  IC50: 71 nM

## CNC(=O)c1cc(Br)cc([N+](=O)[O-])c1NC(C(C)C)C1CN(C(=O)c2cncc3cc(O)ccc23)C1 (stereo not shown) [WU-05]
SARS-CoV-2 3CLpro
  IC50: 122 ± 16 nM

## CNC(=O)c1cc(Br)ccc1N[C@@H]1CCCC[C@@H]1NC(=O)c1cncc2ccccc12 [WU-06]
SARS-CoV 3CLpro
  inhibition of SARS-CoV 3CLpro enzyme activity: showed no activity
SARS-CoV-2 3CLpro
  inhibitory activity against SARS-CoV-2 3CLpro: abolished the activity

## CNC(=O)c1cc(Br)cc(C(F)(F)F)c1N[C@@H]1CCCC[C@@H]1NC(=O)c1cncc2ccccc12 [WU-07]
SARS-CoV-2 3CLpro
  IC50: 239 ± 16 nM

## CNC(=O)c1cc(Br)cc(C#N)c1N[C@@H]1CCCC[C@@H]1NC(=O)c1cncc2ccccc12 [WU-08]
SARS-CoV-2 3CLpro
  IC50: 467 ± 64 nM

## CNC(=O)c1cc(Br)cc([N+](=O)[O-])c1N[C@@H]1CCCC[C@@H]1NC(=O)c1cncc2cc(O)ccc12 [WU-09]
SARS-CoV-2 3CLpro
  IC50: 221 ± 35 nM

## CNC(=O)c1cc(Br)cc([N+](=O)[O-])c1N[C@@H]1CCCC[C@@H]1NC(=O)c1cncc2cccc(O)c12 [WU-10]
SARS-CoV-2 3CLpro
  IC50: 135 ± 8 nM

## COC(=O)c1cc(Br)cc([N+](=O)[O-])c1N[C@@H]1CCCC[C@@H]1NC(=O)c1cncc2ccccc12 [WU-11]
SARS-CoV-2 3CLpro
  IC50: 849 ± 161 nM

## O=C(O)c1cc(Br)cc([N+](=O)[O-])c1N[C@@H]1CCCC[C@@H]1NC(=O)c1cncc2ccccc12 [WU-12]
SARS-CoV-2 3CLpro
  IC50: 6110 ± 2630 nM
